Measurements: patent US8637484B2, “Modulation of growth hormone receptor expression and insulin-like growth factor expression” (Antisense Therapeutic Limited, priority 2003, dated 2014)
Marks after values point to notes of the source that are not given here. In the oligonucleotide strings, read from the 5' end, every base follows the letter of its sugar. An asterisk marks phosphorothioate; unmarked linkages are phosphodiester. Other units and linkages are bracketed, terminal groups are in braces. A string of capitals states the bases alone. e = 2'-O-(2-methoxyethyl) (MOE); [5mC] = 5-methylcytosine; d = 2'-deoxy (DNA)

Key:
[1] = test system: growth hormone receptor mRNA; experiment: Growth hormone receptor mRNA levels in liver, two-week mouse study; type: in vivo
Procedure: (§1) A two-week study was done in similar fashion to the one-week study in Example 18, this time using ISIS 227446 at doses of 3, 5, 10, 20 and 30 mg/kg. The mismatch control was given at the same doses. Mice were treated with antisense compound or saline every other day for 14 days.
Growth hormone receptor mRNA levels in liver tissue samples from treated and untreated mice in this two-week study were assayed. The growth hormone receptor antisense inhibitor ISIS 227446 reduced growth hormone receptor mRNA levels in liver after the two-week study by 50% at the 20 mg/kg dose relative to saline control (p<0.001). The 30 mg/kg dose of ISIS 227446 yielded a 53% decrease in growth hormone receptor mRNA (p<0.0001). The mismatch control oligonucleotide ISIS 261303 (SEQ ID NO: 267), at 30 mg/kg, reduced growth hormone receptor mRNA levels by approximately 3%.

[2] = test system: blood vessel profiles (BVPs) in the inner retina; experiment: Oxygen-induced retinopathy (ROP) in mice, blood vessel profiles in the inner retina; type: in vivo, mouse
Procedure: Oxygen-induced retinopathy (also called retinopathy of prematurity or ROP) in laboratory animals is a widely used model for the study of retinal microvascular complications. Wilkinson-Berka et al., 2003, Invest. Opthalmol. V is Sci. 44, 974; Morayski, C. et al., 2000, Hypertension, 36,1099-1104.
To produce ROP, seven-day-old mice were placed in an infant incubator with their nursing mother in 75% oxygen from postnatal day 7 to day 12 as described in the literature. Smith et al., 1994, Invest Ophthalmol V is Sci 35, 101-111; Robinson et al., Proc Natl Acad Sci USA., 1996, May 14; 93, 4851-6. On postnatal day 12, the animals were returned to room air. Animals were sacrificed on postnatal day 17 when maximal neovascularization is observed. Sham-treated animals are handled similarly but are maintained in room air at all times.
Mice were dosed with antisense oligonucleotide in saline (total volume […]) at postnatal days 12, 13, 14, 15, and 16 or days 7, 8, 9, 11, 13, 15 and 17. Oligonucleotide was administered intraperitoneally at concentrations of 5, 10, 20 and 30 mg/kg. The mismatch control ISIS 261303 is also given.
Blood vessel profiles (BVPs) in the inner retina are quantitated in eyes from 36 experimental groups. Each group contains 8 retina from 8 different mice. Tables 7, 8 and 9 indicate 1) from which groups eyes have been collected to date for sectioning and 2) how many animals have had BVPs quantitated to date in each experimental group.
“Early intervention” (“Early I” in Tables 8-10) is used to describe mice pups that have been administered agents at postnatal days 7, 8, 9, 11, 13, 15 and 17 (7 doses). “Late intervention” (“Late I” in Tables 7-10) is used to describe mice pups administered agents at postnatal days 12, 13, 14, 15 and 16 (5 doses). All treatments were by intraperitoneal injection. Counting of blood vessel profiles (BVPs) in the inner retina is performed in a masked manner by investigators blinded to the experimental groups.

[3] = Body weight, growth and organ weights, 1 week pilot study; type: in vivo, mouse; conditions: 1 week study; g/total body weight
Procedure: Saline, antisense, mismatch control and octreotide samples were prepared, and coded for blinding. Animals were given a subcutaneous dose of saline every second day, and mismatch control or antisense with administration on days 0, 2, 4, 6. Animals were given twice daily doses of 25 μg octreotide. Animals were housed 4 per cage, for the duration of one week. They had access to a pre-determined quantity of standard mouse food and water at all times throughout the experiment. They were housed in a quiet, temperature- and humidity-maintained environment for the entirety of the study. At day 0 and before treatment on each day or second day, the animals had their body weight and food intake measured, enabling the correct dose of agent to be administered. The animals were monitored closely for any changes in fur, skin, eye, locomotion or other changes in behavior. No problems were observed. Every second day from day −7 to day 7 body weight and food intake were measured.
The serum remaining following the insulin-like growth factor-1 assay was isolated and stored at −80° C. The whole liver was removed rapidly for weighing and snap-frozen in labelled aluminum parcels by submersion in liquid-nitrogen. […]
This confirms published results of others. […] Weight was measured in two ways: weight trend (live animal), and final carcass weight. […]

serum IGF-I [4] = experiment: Serum IGF-I, additional 1 week study in mice; type: in vivo, mouse; conditions: 50 mg/kg once every 2 days, day 7
Procedure: Male Balb/C(a) mice were prepared and grouped for analysis as in Example 18 above.
Animals (n=10/group) were designated to the following treatment groups:
Animals were treated and serum IGF-I levels were measured as in Example 18 above. Briefly, for the one-week study, mice were given a subcutaneous dose of saline every second day, and mismatch control or antisense with administration on days 0, 2, 4, 6. On day 7, the animals were anaesthetized with pentobarbital and non-fasting blood samples collected exactly 5 minutes later from the retrobulbar plexus through heparinized capillary tubes under light ether anesthesia. Serum IGF-I measurement was done by radioimmunoassay at day 7.

serum IGF-I [5] = experiment: Serum IGF-I, two-week mouse study; type: in vivo; conditions: for % decrease relative to 3 mg/kg ISIS 227446: day 14
Procedure: as §1
P-values were determined by t-test.

## acaaagatccatacctgaga (eA*e[5mC]*eA*eA*eA*dG*dA*dT*d[5mC]*d[5mC]*dA*dT*dA*d[5mC]*d[5mC]*eT*eG*eA*eG*eA; antisense) [ISIS 227446]
[1]; 20 mg/kg
  reduction of growth hormone receptor mRNA levels in liver relative to saline control: 50%
[1]; 30 mg/kg
  decrease in growth hormone receptor mRNA in liver: 53%
[2]; ROP + 5 mg/kg ip, Early I
  Average # BVPs: 28.25
[2]; ROP + 5 mg/kg ip, Late I
  Average # BVPs: 25.19
[2]; ROP + 10 mg/kg ip, Early I
  Average # BVPs: 23.18
[2]; ROP + 30 mg/kg ip, Late I
  Average # BVPs: 24.24
[2]; Sham + 20 mg/kg ip, Early I (postnatal days 7, 8, 9, 11, 13, 15, 17)
  Average # BVPs: 9.97*
[2]; Sham + 30 mg/kg ip, Early I
  Average # BVPs: 10.94*
[2]; Sham + 30 mg/kg ip, Late I (postnatal days 12-16)
  Average # BVPs: 11.25*
[2]; early intervention
  effect on blood vessel profiles in sham-treated (no retinopathy) mice: no effect
[3]
  liver weight: unaffected
Serum IGF-I [4]
  reduction of serum IGF-I relative to saline control: 33%
  reduction of serum IGF-I relative to the unrelated control: 20%
Serum IGF-I [5]; 3 mg/kg every other day for 14 days
  Day 14 serum IGF-I: 214 ng/mL
Serum IGF-I [5]; 3 mg/kg, 14 days, equivalent to saline control (separate experiment)
  effect on serum IGF-I levels: no effect
Serum IGF-I [5]; 3 mg/kg
  % decrease relative to 3 mg/kg ISIS 227446: 0%
Serum IGF-I [5]; 5 mg/kg every other day for 14 days
  Day 14 serum IGF-I: 194 ng/mL
Serum IGF-I [5]; 5 mg/kg
  % decrease relative to 3 mg/kg ISIS 227446: 9%
Serum IGF-I [5]; 10 mg/kg every other day for 14 days
  Day 14 serum IGF-I: 130 ng/mL
Serum IGF-I [5]; 10 mg/kg
  % decrease relative to 3 mg/kg ISIS 227446: 39%
Serum IGF-I [5]; 20 mg/kg every other day for 14 days
  Day 14 serum IGF-I: 122 ng/mL
Serum IGF-I [5]; 20 mg/kg
  % decrease relative to 3 mg/kg ISIS 227446: 43%
Serum IGF-I [5]; 30 mg/kg every other day for 14 days
  Day 14 serum IGF-I: 126 ng/mL
Serum IGF-I [5]; 30 mg/kg
  % decrease relative to 3 mg/kg ISIS 227446: 41%
Serum IGF-I [5]; >10 mg/kg, 14 days
  decrease in serum IGF-I levels compared to 3 mg/kg: 39-43%
